Key:
[1] = tested on: supercoiled pBR322 DNA; assay: Hydroxyl radical-induced DNA scission; details: 1 μM test compounds, H2O2/Fe2SO4, 37° C., 1 hour, FIG. 2
Description: For hydroxyl radical-induced DNA oxidation, 2 μL of test compounds dissolved in ethanol were added into an Eppendorf tube and the solvent was evaporated under a nitrogen stream. To the tube 2 μL of distilled water were added, followed by thorough vortexing for 1 min. The following reagents were then added to the tube in the order as stated: 2 μL of PBS (pH7.4), 2 μL of supercoiled pBR322 DNA, 2 μL of H2O2 and 2 μL of Fe2SO4. The mixture (10 μL) containing 1 μM test compounds, 0.1M PBS, 10 μg/ml DNA, 0.2 mM H2O2 and 0.1 mM Fe2SO4 (final concentration/assay) was incubated at 37° C. for 1 hour.
After incubation, 1 μL of loading dye (0.25% bromophenol blue/0.25% xylene cyanol/50% glycerol) was added, and the whole mixture was loaded onto an agarose gel. […] The images were analyzed using AlphaEase stand-alone software (Alpha Innotech Co., San Leandro, Calif.) and the intensity or density of the bands (obtained from densitometer) was used as the indicator of concentration of the native (supercoiled) and nicked DNA fractions. Antioxidant activity was calculated as DNA retention according to the following equation: % retention=100×(native DNAsample/native DNAblank) where, DNAsample and DNAblank are normalized concentrations of native supercoiled DNA in total DNA for sample groups and blank, respectively. […]

[2] = Reducing power (Fe3+-Fe2+ transformation); details: test compounds 1 mM in 95% ethanol, ascorbic acid equivalents
Description: An ORAC (Oxygen Radical Absorbance Capacity) assay was carried out using a Fluostar Optima plate reader (BMG Labtech, Durham, N.C.) equipped with an incubator and two injector pumps. A modified method for lipophilic antioxidants was followed, in which randomly methylated cyclodextrin (RMCD) was used as water solubility enhancer, as described by Huang et al, J. Agric. Food Chem., 2002, 50, 1815-1821. Trolox standards (6.25-50 μM) and samples (0.25 μM) were dissolved in acetone/water (1:1, v/v) containing 7% RMCD. Fluorescein and […] [2,2′-azobis(2-aminopropane)dihydrochloride] were used as the probe and radical generator, respectively. […] Fluorescence was measured at an excitation wavelength of 485 nm and emission of 520 nm. […] (3b) Reducing Power The reducing power of EGCG and its derivatives (compounds 1a-1c) was determined according to Oyaizu (1986). […] The content was mixed well and the absorbance was recorded at 700 nm. Higher absorbance of the reaction mixture indicates greater reducing power. […] (3c) Metal Chelation The metal chelation capacity was measured following a procedure by Decker E. A. et al., J. Agric. […] The absorbance was measured afterwards at 562 nm. A blank without ferrozine was run for each compound, since the antioxidant-Fe^2+ complex gives a colour that might interfere with the absorbance reading. […] The spectrum was recorded after 1 min. […]

| SMILES | Antioxidant activity against hydroxyl radical-induced DNA scission [1] | Reducing power relative to ascorbic acid [2] |
| --- | --- | --- |
| CCC=CCC=CCC=CCC=CCC=CCCCC(=O)Oc1cc(C(=O)OC2Cc3c(O)cc(O)cc3OC2c2cc(OC(=O)CCCC=CCC=CCC=CCC=CCC=CCC)c(O)c(OC(=O)CCCC=CCC=CCC=CCC=CCC=CCC)c2)cc(OC(=O)CCCC=CCC=CCC=CCC=CCC=CCC)c1O (centres unmarked) [Compound 1b] | the most potent antioxidant among all | – |
| O=C(O[C@@H]1Cc2c(O)cc(O)cc2O[C@@H]1c1cc(O)c(O)c(O)c1)c1cc(O)c(O)c(O)c1 [EGCG, Epigallocatechin gallate, reference compound] | – | highest reducing power |
